One may read the IC50 as the point on the concentration scale where inhibition reaches its midpoint.

2 molecules from patent US12366579B2, “Sulfur-heterocycle exchange chemistry and uses thereof” (University of Virginia Patent Foundation, priority 2019, dated 2025) can be followed below.

Molecules are shown by their SMILES.

The target in assay [1] is T1, recombinant GSTP1 lysates (Homo sapiens, UniProt P09211).
T1 construct: FLAG (C); host or cells: HEK293T, transient transfection; soluble proteome used unpurified
T1 sequence (P09211 whole entry): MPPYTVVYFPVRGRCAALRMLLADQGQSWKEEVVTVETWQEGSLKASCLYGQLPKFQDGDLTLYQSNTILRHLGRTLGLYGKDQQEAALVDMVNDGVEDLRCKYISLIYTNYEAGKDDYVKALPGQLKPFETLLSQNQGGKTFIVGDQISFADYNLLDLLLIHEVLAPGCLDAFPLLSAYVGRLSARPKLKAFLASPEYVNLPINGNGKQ
Kind of assay: GSTP1 biochemical substrate assay (GSH conjugation to BDNB). Particulars: inhibitor 30 min at 37° C.; n=3; read-out: IC50, in vitro potency against GSTP1 by GSH substrate assay. As for the experimental part: GSTP1 Biochemical Substrate Assay
Recombinant GSTP1-HEK293T soluble cell proteomes were diluted to 1 mg ml^−1 in assay buffer (100 mM NaH2PO4, pH 7.0). Samples were treated with inhibitor at indicated concentrations for 30 min at 37° C. GSH stock solution (250 mM in water) was diluted to 4 mM in assay buffer and 25 μl of diluted GSH solution was added to each sample. A substrate stock solution of 75 mM 1-bromo-2,4-dinitrobenzene […] in ethanol was diluted to 2 mM in assay buffer. Samples (25 μl) were aliquoted into a 96-well plate and spun briefly via centrifuge. Next, 50 μl of 2 mM BDNB was added to each well and the reaction was monitored in kinetic mode by measuring absorbance at 340 nm for 10 min on a BMG Labtech CLARIOstar plate reader (BMG Labtech, Cary, North Carolina, United States of America).

The target in another assay is T2, human GSTP1 (hGSTP1) (Homo sapiens, UniProt P09211).
T2 construct: FLAG (C); host or cells: HEK293T, transient transfection; soluble proteome used unpurified
T2 sequence (P09211 whole entry): as above
Kind of assay: Gel-based competitive chemical proteomic screen with HHS-482, recombinant hGSTP1-HEK293T soluble proteomes. Format: binding. Particulars: fragment 50 μM, 30 min, 37° C. As for the experimental part:
(§1) Gel-Based Chemical Proteomic Assay
(§2) Cell pellets were lysed in PBS and fractionated (100,000×g, 45 min, 4° C.) to generate soluble and membrane fractions. Protein concentrations were determined using Bio-Rad DC protein assay (Bio-Rad Laboratories, Inc., Hercules, California, United States of America), and adjusted to 1 mgml^−1 in PBS. Proteome samples (49 μl aliquots) were treated with DMSO vehicle or indicated concentration of SuTEx fragment (1 μL, 50× stock in DMSO) for 30 min at 37° C. Samples were then treated with HHS-482 probe (1 μL, 2.5 mM stock in DMSO) for 30 min at 37° C. Probe labeled samples were conjugated to rhodamine-azide (1 μL, 1.25 mM stock; final concentration of 25 μM) by copper-catalyzed azide-alkyne cycloadditions (CuAAC) for 1 h at room temperature followed by SDS-PAGE and in-gel fluorescence scanning as previously described^57.

A further assay addresses T3, GSTP1 Y8 (Homo sapiens, UniProt P09211).
T3 construct: endogenous in cells; host or cells: DM93 melanoma cells (SILAC)
In words: Quantitative chemical proteomics of live SILAC DM93 cells treated with SuTEx fragments. Format: cell-based. As for the experimental part: Live Cell Evaluation of Sulfonyl-Triazole Fragments
Cells grown to ˜90% confluency in 10 cm plates were treated with DMSO vehicle or SuTEx fragment (10 μl of 1,000× stock) in serum-free media for the indicated concentrations and times at 37° C. with 5% CO2. After treatment, cells were washed with cold PBS twice before collection and preparation for gel-based chemical proteomic evaluation as described above. For LC-MS studies, protein concentrations were normalized to 2.3 mg ml^−1 and 432 μl (for 1 mg final protein amount) were used for sample preparation as detailed below.
(§3) Heavy and light proteomes (432 μl of each) were diluted to 2.3 mg ml^−1 in PBS and sample aliquots (432 μl) were treated with SuTEx fragment at the indicated concentrations (5 μl, 100× stock in DMSO), mixed gently and incubated for 30 min at 37° C. Samples were then treated with HHS-482 (5 μL, 5 mM stock in DMSO) for 30 min at 37° C. Probe-modified proteomes were conjugated to desthiobiotin-PEG3-azide followed by enrichment of probe-modified peptides for nano-electrospray ionization-LC-MS/MS analyses as previously described^57.
Next, SILAC DM93 cells were treated with JWB152 or JWB198 to determine whether these SuTEx fragments could ligand Y8 of endogenous GSTP1 in living systems (50 μM compound, 1.5 hr, 37° C.). Cells were pretreated with DMSO vehicle or SuTEx fragments followed by cells lysis, HHS-482 labeling of proteomes, and quantitative chemical proteomics.

In the next assay the test system is DM93 soluble proteomes. Kind of assay: Proteome-wide competitive chemical proteomics of SuTEx fragments vs HHS-482. Format: binding, human. The following applies: fragment 50 μM, 30 min, 37° C. As for the experimental part: as §3
The chemical proteomic method for functional tyrosine profiling^72 was tailored to investigate AG/LG effects on SuTEx fragment reactivity in complex proteomes. In brief, isotopically light and heavy soluble proteomes from DM93 melanoma cells cultured by stable isotopic labeling by amino acids in cell culture (SILAC^80) media were used for quantitative liquid chromatography-mass spectrometry (LC-MS) studies. Light and heavy DM93 proteomes were treated with dimethyl sulfoxide (DMSO) vehicle or SuTEx fragment (50 μM, 30 min, 37° C.), respectively, followed by labeling with the tyrosine-reactive probe HHS-482 described hereinabove (50 μM, 30 min, 37° C.) and copper-catalyzed azide-alkyne cycloaddition (CuAAC) conjugation of a desthiobiotin-azide enrichment tag. Proteomes were digested with trypsin protease, HHS-482-modified peptides enriched by avidin chromatography and analyzed by high-resolution LC-MS/MS and bioinformatics as described hereinabove.
To evaluate substituent effects on proteome activity, reactivity profiles of each respective SuTEx fragment were compared across >1500 total distinct HHS-482-modified tyrosine sites from >650 detected proteins. Fragments were screened across independent biological replicates (n=2-3) and high-quality tyrosine site annotations were identified by detection in at least a single biological replicate from each fragment dataset, probe-specific enrichment (HHS-482 probe/DMSO SILAC ratio (SR)>5), and quality control confidence criteria of ≥300 Byonic score^31, […] protein false discovery rate (FDR), and ≤5 ppm mass accuracy in order to minimize the potential for false positives^72. SILAC ratios (SR) from competitive studies (Light-DMSO/Heavy-fragment) were used to identify fragment-competed tyrosine residues as sites showing >75% reduction in enrichment by HHS-482 compared with DMSO vehicle control (i.e. liganded tyrosines, SR>4). In total, 305 liganded tyrosines on 213 distinct proteins were identified, corresponding to ˜30% and ˜44% of total quantified tyrosines and proteins, respectively. […]

The next assay concerns the target T4, purified DPP3 (Homo sapiens, UniProt Q9NY33).
T4 sequence (Q9NY33 1-737): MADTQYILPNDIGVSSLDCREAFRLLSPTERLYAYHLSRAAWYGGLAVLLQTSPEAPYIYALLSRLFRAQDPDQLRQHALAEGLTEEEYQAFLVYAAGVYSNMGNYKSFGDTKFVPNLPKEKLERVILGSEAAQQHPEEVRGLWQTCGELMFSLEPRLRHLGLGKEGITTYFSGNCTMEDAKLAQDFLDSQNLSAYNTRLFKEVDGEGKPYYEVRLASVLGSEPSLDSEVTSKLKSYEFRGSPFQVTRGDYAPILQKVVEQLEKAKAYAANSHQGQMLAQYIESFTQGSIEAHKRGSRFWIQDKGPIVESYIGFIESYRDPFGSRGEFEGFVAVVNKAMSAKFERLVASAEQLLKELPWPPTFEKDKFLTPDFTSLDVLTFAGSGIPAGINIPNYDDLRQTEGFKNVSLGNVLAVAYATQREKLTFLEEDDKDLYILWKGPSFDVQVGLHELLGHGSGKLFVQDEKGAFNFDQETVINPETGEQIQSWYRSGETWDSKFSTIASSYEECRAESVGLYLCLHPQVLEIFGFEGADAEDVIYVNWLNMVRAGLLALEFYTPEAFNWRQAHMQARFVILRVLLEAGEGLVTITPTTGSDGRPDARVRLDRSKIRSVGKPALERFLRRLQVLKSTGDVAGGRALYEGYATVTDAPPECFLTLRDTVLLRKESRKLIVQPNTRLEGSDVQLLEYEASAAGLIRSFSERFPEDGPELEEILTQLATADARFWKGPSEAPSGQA
In words: DPP3 biochemical substrate assay (Arg-Arg β-naphthylamide peptidase assay). As for the experimental part:
DPP3 Biochemical Substrate Assay
Substrate assays were performed using purified DPP3 protein diluted to 5 ng/μL in assay buffer. DPP3 samples (10 μl) were diluted to 85 μl with assay buffer and transferred to a black 96-well plate. Samples were treated with a 50× stock of SuTEx-fragment at indication concentration for 30 min at 37° C. A stock solution of DPP3 substrate (Arg-Arg β-naphthylamide trihydrochloride, 0.5 mM: Sigma-Aldrich. St, Louis, Missouri, United States of America) was diluted to 100 μM in assay buffer. Substrate solution (5 μl) was added to each sample. Samples were mixed briefly by shaking and reaction monitored in kinetic mode by measuring fluorescence at 450 nm for 10 min on a BMG Labtech CLARIOstar plate reader (BMG Labtech, Cary, North Carolina, United States of America).

A further assay concerns the target T5, human DPP3 (hDPP3) (Homo sapiens, UniProt Q9NY33).
T5 construct: FLAG (C); host or cells: HEK293T, transient transfection; soluble proteome used unpurified
T5 sequence (Q9NY33 1-737): T4 sequence (Q9NY33 1-737)
Kind of assay: Gel-based competitive chemical proteomic screen with HHS-482, recombinant hDPP3-HEK293T soluble proteomes. Format: binding. The following applies: 50 μM fragment, 37° C., 30 min. As for the experimental part: as §1, §2

The next assay concerns the target T6, DPP3 Y417 (Homo sapiens, UniProt Q9NY33).
T6 construct: FLAG (C); host or cells: HEK293T, transient transfection; soluble proteome used unpurified
In words: Quantitative LC-MS chemical proteomics of recombinant human DPP3-HEK293T soluble proteome. Format: binding. Particulars: 50 μM fragment, 37° C., 30 min. As for the experimental part: Preparation of SILAC Proteomes for Liquid Chromatography-Tandem Mass Spectrometry ([…]) Analysis
as §3
Identification of peptides and proteins from tandem mass spectrometry analyses was accomplished using bioinformatics software and quality control criteria as previously described^57.

The target in the next assay is T7, YWHAE (Y49) (Homo sapiens, UniProt P62258).
T7 construct: endogenous in cells; host or cells: DM93 melanoma cells, soluble proteome (lysate)
T7 sequence (P62258 whole entry): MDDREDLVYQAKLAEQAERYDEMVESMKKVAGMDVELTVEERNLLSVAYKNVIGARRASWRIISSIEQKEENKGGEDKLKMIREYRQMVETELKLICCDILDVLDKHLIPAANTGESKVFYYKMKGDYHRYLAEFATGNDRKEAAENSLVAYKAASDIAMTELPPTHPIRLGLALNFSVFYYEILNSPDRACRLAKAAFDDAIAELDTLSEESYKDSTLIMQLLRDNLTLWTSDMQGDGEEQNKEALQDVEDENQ
Kind of assay: Competitive chemical proteomics of SuTEx fragments vs HHS-482, YWHAE site. It counts as binding. The following applies: fragment 50 μM, 30 min, 37° C. As for the experimental part: as §3
The chemical proteomic method for functional tyrosine profiling^72 was tailored to investigate AG/LG effects on SuTEx fragment reactivity in complex proteomes. In brief, isotopically light and heavy soluble proteomes from DM93 melanoma cells cultured by stable isotopic labeling by amino acids in cell culture (SILAC^80) media were used for quantitative liquid chromatography-mass spectrometry (LC-MS) studies. […] Proteomes were digested with trypsin protease, HHS-482-modified peptides enriched by avidin chromatography and analyzed by high-resolution LC-MS/MS and bioinformatics as described hereinabove.
To evaluate substituent effects on proteome activity, reactivity profiles of each respective SuTEx fragment were compared across >1500 total distinct HHS-482-modified tyrosine sites from >650 detected proteins. […]

T3 sequence (P09211 whole entry): as the sequence (P09211 whole entry) above

Consider `O=S(=O)(c1ccc2ccccc2c1)n1cnc(-c2ccncc2)n1` [JWB198, 4-(1-(Naphthalen-2-ylsulfonyl)-1H-1,2,4-triazol-3-yl)pyridine], for which, in assay [1], the IC50 came out at 16 µM. In addition, at human GSTP1 (hGSTP1), the “block of HHS-482 labeling of GSTP1” value is listed as “block HHS-482 labeling to levels comparable with Y8F mutant”. Moreover, the “blockade of HHS-482 labeling of native GSTP1 Y8 in live cells” value at GSTP1 Y8 (50 μM compound, 1.5 hr, 37° C.) is ~70%. For the same molecule, the “SILAC ratio (SR) at other GSTP1 probe-modified sites” value at GSTP1 Y8 (Y50, Y64, Y80, Y119, and Y199, 50 μM) is ~1. Further, in the assay with DM93 soluble proteomes, the “liganded tyrosine frequency (SR>4)” value is reported as 1.3%.
Consider `COc1ccc(-c2ncn(S(=O)(=O)c3ccc(-c4ccccc4)cc3)n2)cc1` [JWB142, 1-([1,1′-Biphenyl]-4-ylsulfonyl)-3-(4-methoxyphenyl)-1H-1,2,4-triazole], for which the “fold difference in potency against DPP3, JWB142 vs SuFEx-3” value on purified DPP3 (JWB142 more potent than SuFEx counterpart) is recorded as > 10 fold. In addition, the IC50 at purified DPP3 (fragment pretreatment 30 min at 37° C., n=3, read-out: IC50, blockade of DPP3 catalytic (peptidase) activity) was 17 µM. At human DPP3 (hDPP3), the “blockade of DPP3 probe (HHS-482) labeling” value was ~50%. At DPP3 Y417, the “SILAC ratio (SR), DPP3 Y417” value was 2.4 and the “blockade of HHS-482 labeling of DPP3 Y417 (site liganded)” value is listed as ~50%. Also, the “liganded tyrosine frequency (SR>4)” value in the assay on DM93 soluble proteomes is recorded as < 0.1%. Also, the “SILAC ratio (SR) at tyrosine competed site YWHAE Y49” value at YWHAE (Y49) is on record as > 6.
